Reference: patent US8097440B1, “Engineered microorganisms capable of producing target compounds under anaerobic conditions” (Gevo, Inc., priority 2008, dated 2012)

Tests used:
[1] = molecular target: T1, E. coli KARI Ec_IlvC variant Ec_IlvC^Q110A-his6 (Q110A), SEQ ID NO: 21 (Escherichia coli, UniProt P05793, Q110A); experiment: KARI cuvette assay, purified Ec_IlvC^Q110A-his6; assay type: biochemical; details: relative to Ec_IlvC^his6 with NADPH
T1 sequence (P05793 with tags, fused parts or gaps Q110A): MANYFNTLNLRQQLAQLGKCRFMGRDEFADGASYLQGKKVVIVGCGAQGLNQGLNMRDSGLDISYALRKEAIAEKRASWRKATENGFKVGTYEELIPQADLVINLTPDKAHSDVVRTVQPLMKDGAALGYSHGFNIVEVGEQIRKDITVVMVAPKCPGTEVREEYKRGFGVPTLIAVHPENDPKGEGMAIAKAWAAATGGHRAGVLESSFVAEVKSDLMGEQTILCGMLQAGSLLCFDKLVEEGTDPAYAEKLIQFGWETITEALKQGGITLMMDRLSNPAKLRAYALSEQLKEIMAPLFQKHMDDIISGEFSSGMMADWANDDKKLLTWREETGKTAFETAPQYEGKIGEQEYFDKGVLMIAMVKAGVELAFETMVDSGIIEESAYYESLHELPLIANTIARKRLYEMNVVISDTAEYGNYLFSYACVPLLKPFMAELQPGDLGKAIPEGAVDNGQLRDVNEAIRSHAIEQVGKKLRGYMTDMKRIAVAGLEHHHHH
Method: (§1) KARI cuvette assay: KARI activity was assayed kinetically by monitoring the decrease in NAD(P)H concentration by measuring the absorbance at 340 nm. A reaction buffer was prepared containing 250 mM potassium phosphate pH 7, 1 mM DTT and 10 mM MgCl2. Cell pellets were resuspended (0.25 g wet weight/mL buffer) in 250 mM potassium phosphate (KPi) buffer containing 1 mM DTT and 10 mM MgCl2. The resuspended cells were lysed by sonication for 1 min with a 50% duty cycle and pelleted at 11000×g and 4° C. for 15 min. A reaction mixture consisting of 910 μl reaction buffer, 50 μl acetolactate, and 20 μl lysate was prepared in a cuvette. The reaction was initiated by addition of 20 μL of 10 mM NAD(P)H. A substrate free control was conducted using reaction buffer without the addition of acetolactate.
Purification of KARI: Cell pellets used for purification were resuspended in purification buffer A (20 mM Tris, 20 mM imidazol, 100 mM NaCl, 10 mM MgCl2, pH 7.4). KARI was purified by IMAC (Immobilized metal affinity chromatography) over a 1 ml Histrap High Performance (histrap HP) column pre-charged with Nickel (GE Healthcare) using an Akta FPLC system (GE Healthcare). […]

[2] = molecular target: T2, E. coli KARI Ec_IlvC variant Ec_IlvC^6E6-his6 (A71S, R76D, S78D, Q110V), SEQ ID NO: 34 (Escherichia coli, UniProt P05793, A71S/Q110V/R76D/S78D); experiment: KARI assay, purified Ec_IlvC^6E6-his6; assay type: biochemical
T2 construct: T37 values cited for the gene on pGV1975
T2 sequence (P05793 with tags, fused parts or gaps A71S/R76D/S78D/Q110V): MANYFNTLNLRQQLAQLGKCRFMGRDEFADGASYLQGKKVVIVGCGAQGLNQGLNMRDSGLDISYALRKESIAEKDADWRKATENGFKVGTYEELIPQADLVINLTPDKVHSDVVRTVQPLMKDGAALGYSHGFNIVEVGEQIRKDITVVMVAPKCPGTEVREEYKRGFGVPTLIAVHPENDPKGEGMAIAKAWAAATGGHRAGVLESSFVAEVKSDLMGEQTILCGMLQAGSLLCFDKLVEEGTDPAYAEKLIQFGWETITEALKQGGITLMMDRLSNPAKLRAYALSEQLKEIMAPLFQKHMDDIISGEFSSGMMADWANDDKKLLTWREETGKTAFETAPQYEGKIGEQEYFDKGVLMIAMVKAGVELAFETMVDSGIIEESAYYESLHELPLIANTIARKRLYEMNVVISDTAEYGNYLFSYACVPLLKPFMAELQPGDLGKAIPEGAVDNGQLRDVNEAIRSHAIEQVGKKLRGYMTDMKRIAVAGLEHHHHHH
Method: as §1, with “The reaction was initiated by addition of 20 μL of 10 mM NAD(P)H. A substrate free control was conducted using reaction buffer without the addition of acetolactate.” left out
Only 20% of the enzymes of the recombination library were active on NADH. After screening 1,000 clones using the NADH depletion assay at 340 nm, 26 KARI variants were selected for a rescreen by the high-throughput assay described in Example 14 and eight thereof were expressed in 25 ml LBamp medium in shake flasks according to the protocol for cell growth and protein expression in shake flasks as described in Example 14, purified according to the protocol for purification of KARI enzymes as described in Example 14, and NAD(P)H depletion at 340 nm was measured again. […] The KM values of variants Ec_llvC^2H10-his6 and Ec_llvC^6E6-his6 were measured and the catalytic efficiencies were calculated. […]

`NC(=O)C1=CN([C@@H]2O[C@H](COP(=O)(O)OP(=O)(O)OC[C@H]3O[C@@H](n4cnc5c(N)ncnc54)[C@H](O)[C@@H]3O)[C@@H](O)[C@H]2O)C=CC1` [NADH, nicotinamide adenine dinucleotide] was tested, and the “(kcat/KM with NADH)/(kcat/KM of Ec_IlvC^his6 with NADPH)” value [1] was 13%, the kcat/KM ([2]; Example 15, expressed in E. coli BL21(DE3), purified) was 74,045 M^−1 * s^−1 and the “activity (in terms of kcat/KM) on NADH compared to wild-type activity on NADPH” value ([2]; best variant, relative to wild-type with NADPH) was 85%.
